Biological target: MAPK14 (human) (UniProt Q16539)
Test: Inhibition of MAPK14 Kinase Activity
Settings: for inhibition: concentration not given here

Chain of MAPK14 (human) (Q16539 whole entry, looked up): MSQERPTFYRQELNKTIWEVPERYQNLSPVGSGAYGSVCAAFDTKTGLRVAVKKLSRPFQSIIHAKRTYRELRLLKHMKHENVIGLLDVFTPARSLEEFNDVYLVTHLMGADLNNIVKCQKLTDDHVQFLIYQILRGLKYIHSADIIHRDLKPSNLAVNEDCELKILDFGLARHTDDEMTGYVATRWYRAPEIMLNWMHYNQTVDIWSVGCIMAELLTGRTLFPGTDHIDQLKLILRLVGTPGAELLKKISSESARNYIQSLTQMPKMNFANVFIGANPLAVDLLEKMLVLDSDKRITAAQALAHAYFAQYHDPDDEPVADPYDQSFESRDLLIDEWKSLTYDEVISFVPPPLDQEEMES

| Compound | IC50 | inhibition |
| --- | --- | --- |
| CN(C)CCNC(=O)CN1CCN(C(=O)c2nc(C(C)(C)C)sc2NC(=O)Nc2cccc(Cl)c2Cl)C(C)(C)C1=O | < 5 µM |  |
| CC(C)(C)c1cc(C(=O)N2CCN(CC(=O)NCC(O)CO)C(=O)C2(C)C)c(NC(=O)Nc2cccc(Cl)c2Cl)s1 (stereo not given) | < 5 µM |  |
| CC1(C)OCC(CN2CCN(C(=O)c3nc(C(C)(C)C)sc3NC(=O)Nc3cccc(Cl)c3Cl)CCC2=O)O1 (stereo not given) | < 5 µM |  |
| CCC1(C)C(=O)N(CCN(C)C)CCN1C(=O)c1cc(C(C)(C)C)sc1NC(=O)Nc1ccc(F)cc1 (stereo not given) | < 5 µM |  |
| COc1ccc(CCC(=O)N2CCN(C(=O)c3cc(C(C)(C)C)sc3NC(=O)Nc3cccc(Cl)c3Cl)CC2)cc1 | < 5 µM |  |
| CC(C)(C)c1cc(NC(=O)Nc2cccc(Cl)c2Cl)c(C(=O)N2CCS(=O)(=O)CC2)o1 | < 5 µM |  |
| CC1(C)OCC(CN2CCN(C(=O)c3cc(C(C)(C)C)sc3NC(=O)Nc3cccc(Cl)c3Cl)C(C)(C)C2=O)O1 (stereo not given) | < 5 µM |  |
| CN(C)CCNC(=O)CN1CCN(C(=O)c2sc(C(C)(C)C)cc2NC(=O)Nc2ccc(F)c(F)c2Cl)C(C)(C)C1=O | < 5 µM |  |
| CC(C)(C)c1nc(C(=O)N2CCC(=O)N(CCN)CC2)c(NC(=O)Nc2cccc(Cl)c2Cl)s1 | < 5 µM |  |
| CN(C)CCNC(=O)CN1CCN(C(=O)c2cc(C(C)(C)C)[nH]c2NC(=O)Nc2cccc(Cl)c2Cl)C(C)(C)C1=O | < 5 µM |  |
| CN(C)CCN1CCN(C(=O)c2cc(C(C)(C)C)sc2NC(=O)Nc2ccc(F)cc2Cl)C(C)(C)C1=O | < 5 µM |  |
| CCCNC(=O)CN1CCN(C(=O)c2cc(C(C)(C)C)sc2NC(=O)Nc2cccc(Cl)c2Cl)C(C)(C)C1=O | < 5 µM |  |
| CN(C)CCNC(=O)CN1CCN(C(=O)c2cc(C(C)(C)C)sc2NC(=O)Nc2ccc(F)c(Cl)c2Cl)C(C)(C)C1=O | < 5 µM |  |
| CCOC(=O)C(C)(CC)NC(=O)c1cc(C(C)(C)C)sc1NC(=O)Nc1cccc(Cl)c1Cl (stereo not given) | < 5 µM |  |
| CC(C)(C)c1cc(C(=O)N2CCNC(=O)C2(C)C)c(NC(=O)Nc2ccc(C#N)c(Cl)c2Cl)s1 | < 5 µM |  |
| COC(=O)CC1(C)C(=O)NCCN1C(=O)c1cc(C(C)(C)C)sc1NC(=O)Nc1ccc(F)c(Cl)c1Cl (stereo not given) | < 5 µM |  |
| CN(C)CCNC(=O)CN1CCN(C(=O)c2sc(C(C)(C)C)cc2NC(=O)Nc2ccc(F)c(Cl)c2Cl)C(C)(C)C1=O | < 5 µM |  |
| CC(C)(C)c1cc(C(=O)N2CCN(CC(=O)NCC(F)(F)F)C(=O)C2(C)C)c(NC(=O)Nc2cccc(Cl)c2Cl)s1 | < 5 µM |  |
| CC(C)(C)c1cc(C(=O)N2CCNC(=O)C2(C)CC(N)=O)c(NC(=O)Nc2ccc(F)c(Cl)c2Cl)s1 (stereo not given) | < 5 µM |  |
| CCc1ccccc1NC(=O)Nc1sc(C(C)(C)C)cc1C(=O)N1CCN(CCN(C)C)C(=O)C1(C)C | < 5 µM |  |
| CON(C)C(=O)CN1CCN(C(=O)c2cc(C(C)(C)C)sc2NC(=O)Nc2ccc(F)cc2Cl)C(C)(C)C1=O | < 5 µM |  |
| CCC1(C)C(=O)N(CC(=O)NCCN(C)C)CCN1C(=O)c1cc(C(C)(C)C)sc1NC(=O)Nc1ccc(F)c(Cl)c1Cl (stereo not given) | < 5 µM |  |
| CC(C)(C)c1cc(C(=O)N2CCNS(=O)(=O)CC2)c(NC(=O)Nc2ccc(C#N)c(Cl)c2)s1 |  | 76 to 100% |
| CC1C(=O)NCCN1C(=O)c1cc(C(C)(C)C)sc1NC(=O)Nc1ccc2ccccc2c1 (stereo not given) |  | 76 to 100% |
| CN(C)CCN1CCN(C(=O)c2cc(C(C)(C)C)sc2NC(=O)Nc2cccnc2Cl)C(C)(C)C1=O | < 5 µM |  |
| CCC1(C)C(=O)N(CC(=O)NCCN(C)C)CCN1C(=O)c1sc(C(C)(C)C)cc1NC(=O)Nc1cccc(Cl)c1Cl (stereo not given) | < 5 µM |  |
| CC(C)(C)c1cc(C(=O)N2CCNC(=O)[C@@H]2CCc2ccccc2)c(NC(=O)Nc2cccc(Cl)c2Cl)s1 | < 5 µM |  |
| O=C(Nc1cc(C(F)(F)F)c(Cl)cc1C(=O)N1CCS(=O)(=O)CC1)Nc1cccc(Cl)c1Cl | < 5 µM |  |

Further lines, results first:

| IC50 | inhibition | Compound |
| --- | --- | --- |
| < 5 µM |  | CC(C)(C)c1cc(C(=O)N2CCC(=O)N(CCN)CC2)c(NC(=O)Nc2cccc(Cl)c2Cl)s1 |
| < 5 µM |  | COC(=O)CC1CC(=O)NCCN1C(=O)c1cc(C(C)(C)C)sc1NC(=O)Nc1cccc(Cl)c1Cl (stereo not given) |
| < 5 µM |  | COc1ccc(Cl)c(NC(=O)Nc2cc(C(C)(C)C)sc2C(=O)N2CCNC(=O)C2(C)C)c1 |
| < 5 µM |  | CN(C)CCN1CCN(C(=O)c2sc(C(C)(C)C)cc2NC(=O)Nc2ccc(F)c(Cl)c2Cl)C(C)(C)C1=O |
| < 5 µM |  | CC(C)(C)c1cc(C(=O)N2CCNC(=O)C2(C)C)c(NC(=O)Nc2ccc(F)cc2Cl)s1 |
| < 5 µM |  | CC(C)(C)c1cc(C(=O)N2CCNC(=O)CC2)c(NC(=O)Nc2ccc(F)c(F)c2Cl)s1 |
| < 5 µM |  | CC(C)(C)c1cc(C(=O)N2CCS(=O)(=O)CC2)c(NC(=O)Nc2ccc(F)c(Cl)c2Cl)s1 |
| < 5 µM |  | Cc1ccccc1NC(=O)Nc1sc(C(C)(C)C)cc1C(=O)N1CCNC(=O)CC1 |
| < 5 µM |  | COc1ccccc1NC(=O)Nc1sc(C(C)(C)C)cc1C(=O)N1CCC(=O)N(CCN(C)C)CC1 |
| < 5 µM |  | Cc1cccc(NC(=O)Nc2sc(C(C)(C)C)cc2C(=O)N2CCC(=O)N(CCN(C)C)CC2)c1Cl |
| < 5 µM |  | CN(C)CCN1CCN(C(=O)c2cc(C(C)(C)C)sc2NC(=O)Nc2cccnc2Cl)CCC1=O |
| < 5 µM |  | CC(C)(C)c1cc(C(=O)N2CCNC(=O)C2(C)C)c(NC(=O)Nc2cccnc2Cl)s1 |
|  | 76 to 100% | CC(C)(C)c1cc(NC(=O)Nc2ccc(Cl)c(Cl)c2)c(C(=O)N2CCNC(=O)CC2)s1 |
| < 5 µM |  | CNC(=O)CN1CCN(C(=O)c2cc(C(C)(C)C)sc2NC(=O)Nc2cccc(Cl)c2Cl)C(C)(C)C1=O |
| < 5 µM |  | CC(C)(C)c1cc(C(=O)N2CCC(=O)N(CCc3nnn[nH]3)CC2)c(NC(=O)Nc2cccc(Cl)c2Cl)s1 |
| < 5 µM |  | CC(C)(C)c1cc(NC(=O)Nc2ccc(F)c(Cl)c2Cl)c(C(=O)N2CCNC(=O)C2(C)CCO)s1 (stereo not given) |

| IC50 | inhibition | Compound |
| --- | --- | --- |
|  | 76 to 100% | CC(C)(C)c1cc(C(=O)N2CCNC(=O)CC2)c(NC(=O)Nc2cc(Cl)cc(Cl)c2)s1 |
|  | 76 to 100% | COCCN1CCN(C(=O)c2cc(C(C)(C)C)sc2NC(=O)Nc2cccc(Cl)c2Cl)CCC1=O |
| < 5 µM |  | CON(C)C(=O)CN1CCN(C(=O)c2cc(C(C)(C)C)sc2NC(=O)Nc2ccc(F)cc2Cl)CCC1=O |
|  | 76 to 100% | CC(C)(C)c1cc(C(=O)N2CCNS(=O)(=O)CC2)c(NC(=O)Nc2cc(Cl)cc(Cl)c2)s1 |
| < 5 µM |  | CC(C)(C)c1cc(C(=O)N2CCS(=O)(=O)CC2)c(NC(=O)Cc2cccc(Cl)c2Cl)s1 |
| < 5 µM |  | CN(C)CCN1CCN(C(=O)c2cc(C(C)(C)C)sc2NC(=O)Nc2ccccc2C(F)(F)F)CCC1=O |
| < 5 µM |  | CC(C)(C)c1cc(C(=O)N2CCNC(=O)C2)c(NC(=O)Nc2cccc(Cl)c2Cl)s1 |
| < 5 µM |  | CCc1ccccc1NC(=O)Nc1sc(C(C)(C)C)cc1C(=O)N1CCNC(=O)CC1 |
| < 5 µM |  | CC(C)(C)c1cc(C(=O)N2CCS(=O)(=O)CC2)c(NC(=O)Nc2cccc3c2OCO3)s1 |
| < 5 µM |  | CC(C)(C)c1cc(C(=O)N2CCNS(=O)(=O)CC2)c(NC(=O)Nc2ccc(F)c(Cl)c2Cl)s1 |
|  | 51 to 75% | CC(C)(C)c1cc(C(=O)N2CCNC(=O)CC2)c(NC(=O)Nc2ccc(CN)cc2)s1 |
| < 5 µM |  | CC(C)(C)c1cc(C(=O)N2CCS(=O)(=O)CC2)c(NC(=O)Nc2ccc3c(c2Cl)OCO3)s1 |
|  | 0 to 25% | CNC(=O)Nc1cc(C(C)(C)C)sc1C(=O)N1CCNC(=O)CC1 |
| < 5 µM |  | CC(C)(C)c1cc(C(=O)N2CCNC(=O)C2)c(NC(=O)Nc2ccc(F)c(Cl)c2Cl)s1 |
|  | 51 to 75% | CC(C)(C)c1cc(C(=O)N2CCNS(=O)(=O)CC2)c(NC(=O)NC(C)(C)c2ccccc2)s1 |
| < 5 µM |  | CC(C)(C)c1cc(C(=O)N2CCNC(=O)CC2)c(NC(=O)Nc2cccc(Cl)c2Cl)[nH]1 |

— the Kinase Knowledgebase extract (Sharma et al. 2016)
